The results in this text go back to ChEMBL document CHEMBL2074572, “Limited distribution of new quinolone antibacterial agents into brain caused by multiple efflux transporters at the blood-brain barrier” (J Pharmacol Exp Ther, 2000).

Data set [1] concerns the target Multidrug resistance-associated protein 1 (Homo sapiens, UniProt P33527). As to the kind of experiment: TP_TRANSPORTER: decrease in intracellular accumulation in HL60 and HL60/ADM cells. The format is functional, cell-based.
Data set [2] concerns the target P-glycoprotein 1 and 3 (MDR1a/MDR1b) (Mus musculus, UniProt P21447+P06795). Description: TP_TRANSPORTER: increase in brain concentration in mdr1a/1b(-/-) mouse. To be noted: in vivo. The format is functional, organism-based.

Multidrug resistance-associated protein 1, sequence (P33527 whole entry): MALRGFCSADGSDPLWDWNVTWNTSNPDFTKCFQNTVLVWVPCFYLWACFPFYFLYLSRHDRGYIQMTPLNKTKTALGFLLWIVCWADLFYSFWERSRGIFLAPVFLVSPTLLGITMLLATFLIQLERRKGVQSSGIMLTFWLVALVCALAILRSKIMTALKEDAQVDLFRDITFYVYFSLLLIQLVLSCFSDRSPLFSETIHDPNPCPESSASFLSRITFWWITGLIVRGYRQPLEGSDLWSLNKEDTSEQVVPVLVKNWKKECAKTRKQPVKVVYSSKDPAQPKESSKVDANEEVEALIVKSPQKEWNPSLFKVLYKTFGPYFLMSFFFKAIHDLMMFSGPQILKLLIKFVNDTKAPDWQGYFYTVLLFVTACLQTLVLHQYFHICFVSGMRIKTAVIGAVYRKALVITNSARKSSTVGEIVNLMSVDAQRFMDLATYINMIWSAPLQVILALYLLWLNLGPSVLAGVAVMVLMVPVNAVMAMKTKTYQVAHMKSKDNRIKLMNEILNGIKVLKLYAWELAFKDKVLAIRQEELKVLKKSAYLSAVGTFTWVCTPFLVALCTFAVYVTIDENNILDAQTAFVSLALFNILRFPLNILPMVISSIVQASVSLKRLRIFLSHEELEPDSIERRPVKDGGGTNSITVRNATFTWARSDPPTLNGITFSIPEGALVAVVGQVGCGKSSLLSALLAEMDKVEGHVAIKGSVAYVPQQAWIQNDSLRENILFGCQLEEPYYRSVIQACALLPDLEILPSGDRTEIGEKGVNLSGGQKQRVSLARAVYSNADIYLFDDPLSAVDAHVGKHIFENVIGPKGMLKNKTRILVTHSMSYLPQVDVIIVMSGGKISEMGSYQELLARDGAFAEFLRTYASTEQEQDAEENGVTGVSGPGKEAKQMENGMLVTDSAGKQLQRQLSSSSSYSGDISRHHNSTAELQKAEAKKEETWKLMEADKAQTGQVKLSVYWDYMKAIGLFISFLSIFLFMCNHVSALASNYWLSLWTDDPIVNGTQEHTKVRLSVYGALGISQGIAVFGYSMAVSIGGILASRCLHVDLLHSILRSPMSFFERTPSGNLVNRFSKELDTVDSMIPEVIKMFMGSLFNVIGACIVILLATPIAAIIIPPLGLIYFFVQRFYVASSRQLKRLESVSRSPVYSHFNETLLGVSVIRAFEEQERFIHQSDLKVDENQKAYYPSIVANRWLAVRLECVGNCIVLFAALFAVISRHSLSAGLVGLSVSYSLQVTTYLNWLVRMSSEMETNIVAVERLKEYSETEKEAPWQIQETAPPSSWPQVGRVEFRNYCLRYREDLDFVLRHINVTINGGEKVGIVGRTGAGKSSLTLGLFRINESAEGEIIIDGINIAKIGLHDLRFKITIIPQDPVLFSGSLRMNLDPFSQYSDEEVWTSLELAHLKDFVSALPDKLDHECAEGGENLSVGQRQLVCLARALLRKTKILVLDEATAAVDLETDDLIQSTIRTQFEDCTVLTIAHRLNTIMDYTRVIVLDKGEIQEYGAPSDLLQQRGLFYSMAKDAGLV

With `Cc1c(F)c(N2CCNC(C)C2)cc2c1c(=O)c(C(=O)O)cn2C1CC1` (configuration not stated) [GREPAFLOXACIN], the Activity result in data set [1] is “substrate [+]”.

On to `C[C@@H]1CN(c2c(F)c(N)c3c(=O)c(C(=O)O)cn(C4CC4)c3c2F)C[C@H](C)N1` [SPARFLOXACIN], for which the Activity entry in data set [2] is “substrate [+]”.
